According to publication PMC3985299, “Single Ascending Dose Safety and Pharmacokinetics of CDRI-97/78: First-in-Human Study of a Novel Antimalarial Drug” (Malaria Research and Treatment, 2014):
Entries after “also recorded” stand apart in the source; their conditions may differ.

Assays:
healthy human volunteers = assay: Single ascending dose, placebo-controlled phase I study: adverse events, tolerability, MTD; format: in vivo; details: for Severity grade: CTCAE v4.0
Description: This was a single ascending dose, placebo-controlled, randomized, double blind trial. Randomization was carried out by computer generated random number sequence. Randomization was carried out for the drug and the placebo in a 3 : 1 ratio for each dose level. The drugs were dispensed in sealed bottles with the randomization code written on them. Randomization codes were provided in sealed opaque envelopes with the protocol specification that the codes may be opened by the investigator only in case of a serious or severe adverse event.
This was used to obtain a dose of 96 mg for a 60 kg person. […] The following dose levels were evaluated: 80, 160, 320, 400, 500, 600, and 700 mg. The starting dose was calculated by allometric scaling from animals. At each dose level, six volunteers received CDRI 97/78 and two received placebo except at 700 mg where only two volunteers were given this dose. At each dose level, volunteers were assessed before proceeding to the next dose.
The decision to stop the dose escalation was based on the appearance of the dose limiting toxicity (DLT) which was defined as the dose at which any of the following appeared: severe nausea, vomiting, heartburn, headache, remarkable change in vital parameters such as blood pressure, heart rate, respiratory rate or oxygen saturation of blood, changes in QT interval, or any event that in the opinion of the investigators required stopping of the trial.
In case this was not achieved, it was planned not to dose volunteers beyond 700 mg.
The volunteers after giving informed consent were screened. The screening process was done latest within 1 month of admission for dosing. The volunteers who fulfilled the inclusion/exclusion criteria were admitted in the CPU the night before drug administration. Standardized dinner was served at 9 pm the night prior to dosing. On day 0, baseline blood sample for biochemical and haematological examination and stool and urine samples for routine and microscopy were taken. They received the study drug, according to the randomization sequence, under supervision. The empty packaging was returned to the container. The volunteers received drug as per randomization. Breakfast was given half an hour after drug administration. Subsequently, standardized lunch and dinner were served to the volunteers.
The subjects were attached to a cardiac monitor and vital HR, BP, ECG, oxygen saturation, and RR were recorded. Corrected QT interval using Fridericia's formula was calculated. […] Unscheduled monitoring was undertaken whenever it felt necessary. […] At the end of the 7th day, they were said to have completed the study. […] The study was monitored by a Data Safety Monitoring Board.

[1] = Single oral dose (200 mg) pharmacokinetic study, plasma LC-MS/MS, noncompartmental analysis; format: in vivo, human; details: oral 200 mg
Description: For pharmacokinetic (PK) study, eligible participants were admitted and housed in the clinical pharmacology unit an evening prior to the PK study. A standard dinner was served and a fasting condition for at least 10 hrs prior to dosing and 4 hrs after dosing was ensured. A peripheral forearm vein was cannulated for sampling for the PK analysis. 200 mg of the study drug was administered with 300 mL of water. The time of actual dose administration to the nearest minute was recorded. 2.5 mL of blood was collected from the indwelling cannula at 0 (before dose), 0.25, 0.5, 0.75, 1, 1.5, 2, 4, 6, 8, 12, 18, 24, 48, 72, 96, 120, and 144 hrs (after dose). 10 mL of additional blood was collected at 0 (before dose) and 24 hr (after dose) for laboratory parameters for safety assessment and PK control sample. A time window of ±2 minutes was permitted for collecting the post dose samples from the scheduled time for PK analysis. Plasma was separated from blood sample intended for PK analysis, within 1 hour of blood sampling, by centrifugation at 2000 rpm for 10 min at 4°C. Samples were stored at −80°C pending transportation. Heparinised blood samples were transported to the laboratory within 7 days of collection. Quantitative analyses of clinical phase ascending dose and single dose PKs samples were done at GLP lab of Pharmacokinetics and Metabolism Division, CDRI, Lucknow, India. α-Arteether was used as an internal standard and all the analyses were performed as per the published method by Singh et al. 2009 [19]. Acceptance criteria for analytical runs were fixed as per internationally approved guidelines. Data acquisition and quantitation were performed using analyst software version 1.4 (Applied Biosystems, MDS SCIEX Toronto, Canada). PK parameters were estimated by using WinNonlin software (Version 1.5, Pharsight Corporation, Mountain View, CA). Oral data were best fitted in noncompartmental model. The individual plasma concentration-time profiles were subjected to noncompartmental analysis to determine various PK parameters. The PK parameters included the terminal elimination half-life (T 1/2), maximum plasma concentration (C max), time to reach maximum plasma concentration (T max), area under the curve (AUC0–∞), and mean residence time (MRT).

rats = test system: rats; set-up: method as in printed; details: preclinical, used for starting dose, ref not given; cited from earlier work
[2] = AE Heaviness of head, 80 mg group
[3] = AE Visual disturbances, 320 mg group
[4] = single oral dose 80-700 mg, healthy male volunteers
[5] = volunteers given 500 mg, 600 mg (and placebo)

## C=C(c1ccc(OC(C)(C)COC(=O)CCC(=O)O)cc1)C1COC2(OO1)C1CC3CC(C1)CC2C3 (stereo not drawn) [CDRI 97/78, Mono[2methyl2[3(1spiro[tricycle[3.3.1.13,7]decane2,3′-[1,2,4]trioxan] 6′-ylethenyl)phenoxy]propyl] ester]
Healthy human volunteers; 80 mg, Heaviness of head
  No. of events: 1
Healthy human volunteers; 160 mg
  Type of adverse events: None
Healthy human volunteers; 320 mg, Visual disturbance
  No. of events: 1
Healthy human volunteers; 400 mg, Bradycardia
  No. of events: 1
Healthy human volunteers; 400 mg, Drowsiness
  No. of events: 1
Healthy human volunteers; 400 mg, Itching
  No. of events: 1
Healthy human volunteers; 500 mg, Nausea
  No. of events: 1
Healthy human volunteers; 500 mg, Sedation
  No. of events: 1
Healthy human volunteers; 600 and 700 mg, Sedation
  No. of events: 1
Healthy human volunteers; AE Bradycardia, 400 mg group
  Causality assessment: Possible (possible (>5% but ≤50% chance of being drug related)
  Duration of AE: 60 min
  Reversal complete (yes or no): Yes
  Spontaneous reversal (yes or no): Yes
  Time (hrs) of onset after drug administration: 1 h
  Treatment given: None
  Severity grade: 1
Healthy human volunteers; AE Drowsiness, 400 mg group
  Causality assessment: Possible (possible (>5% but ≤50% chance of being drug related)
  Duration of AE: 60 min
  Reversal complete (yes or no): Yes
  Spontaneous reversal (yes or no): Yes
  Time (hrs) of onset after drug administration: 2 h
  Treatment given: None
  Severity grade: 1
Healthy human volunteers; [2]
  Causality assessment: Possible (possible (>5% but ≤50% chance of being drug related)
  Duration of AE: 15 min
  Reversal complete (yes or no): Yes
  Spontaneous reversal (yes or no): Yes
  Time (hrs) of onset after drug administration: 0.25 h
  Treatment given: None
  Severity grade: 1
Healthy human volunteers; AE Itching, 400 mg group
  Causality assessment: Possible (possible (>5% but ≤50% chance of being drug related)
  Duration of AE: 8 min
  Reversal complete (yes or no): Yes
  Spontaneous reversal (yes or no): Yes
  Time (hrs) of onset after drug administration: 24 h
  Treatment given: None
  Severity grade: 1
Healthy human volunteers; AE Nausea, 500 mg group
  Causality assessment: Possible (possible (>5% but ≤50% chance of being drug related)
  Duration of AE: 20 min
  Reversal complete (yes or no): Yes
  Spontaneous reversal (yes or no): Yes
  Time (hrs) of onset after drug administration: 0.25 h
  Treatment given: None
  Severity grade: 1
Healthy human volunteers; AE Sedation, 500 mg group
  Causality assessment: Possible (possible (>5% but ≤50% chance of being drug related)
  Duration of AE: 120 min
  Reversal complete (yes or no): Yes
  Spontaneous reversal (yes or no): Yes
  Time (hrs) of onset after drug administration: 2 h
  Treatment given: None
  Severity grade: 1-2
Healthy human volunteers; AE Sedation, 600 mg group
  Causality assessment: Possible (possible (>5% but ≤50% chance of being drug related)
  Duration of AE: 60 min
  Reversal complete (yes or no): Yes
  Spontaneous reversal (yes or no): Yes
  Time (hrs) of onset after drug administration: 2 h
  Treatment given: None
  Severity grade: 1-2
Healthy human volunteers; [3]
  Causality assessment: Remote (remote (<5% chance of being drug related))
  Duration of AE: 2 to 3 min
  Reversal complete (yes or no): Yes
  Spontaneous reversal (yes or no): Yes
  Time (hrs) of onset after drug administration: 36 h
  Treatment given: None
  Severity grade: 1
Healthy human volunteers; adverse event bradycardia
  Heart rate during adverse event bradycardia: 56-57 bpm
Healthy human volunteers; all dose levels, P = 0.43
  Incidence of adverse events, drug vs placebo groups: no significant difference
Healthy human volunteers; single oral dose 80-700 mg
  Serious adverse events: No serious adverse events were reported
Healthy human volunteers; [4]
  MTD (maximum tolerated dose): not reached; also recorded: could not be determined
  Tolerability / safety: well tolerated; also recorded: safe and tolerable
Healthy human volunteers; [5]
  Sedation: duration: 1 to 2 h
  Sedation: time of onset after drug administration: about 2 hours
[1]
  Absorption: rapidly absorbed
[1]; most of the volunteers
  Plasma concentration of parent molecule: below the limit of quantitation
rats
  Maximum tolerated dose: 100 mg/kg
